# Data from patent publication US20240269139A1, “COMPOUNDS FOR TARGETED PROTEIN DEGRADATION OF KINASES” (DANA-FARBER CANCER INSTITUTE, INC., priority 2020, published 2024).
# Like-named read-outs stand apart in the source and are kept apart here.
# How the values were obtained:
# Assay type in all cases: cell-based
# [1] = molecular target: protein kinases (human kinome) (Homo sapiens, UniProt Q7KZI7)
# [2] = molecular target: protein kinases (human kinome) (Homo sapiens, UniProt Q13164); conditions: MAPK7 (Q13164-1)
# [3] = molecular target: T1, protein kinases (human kinome) (Homo sapiens, UniProt O60285); conditions: NUAK1 (O60285)
# T1 sequence (O60285 1-661): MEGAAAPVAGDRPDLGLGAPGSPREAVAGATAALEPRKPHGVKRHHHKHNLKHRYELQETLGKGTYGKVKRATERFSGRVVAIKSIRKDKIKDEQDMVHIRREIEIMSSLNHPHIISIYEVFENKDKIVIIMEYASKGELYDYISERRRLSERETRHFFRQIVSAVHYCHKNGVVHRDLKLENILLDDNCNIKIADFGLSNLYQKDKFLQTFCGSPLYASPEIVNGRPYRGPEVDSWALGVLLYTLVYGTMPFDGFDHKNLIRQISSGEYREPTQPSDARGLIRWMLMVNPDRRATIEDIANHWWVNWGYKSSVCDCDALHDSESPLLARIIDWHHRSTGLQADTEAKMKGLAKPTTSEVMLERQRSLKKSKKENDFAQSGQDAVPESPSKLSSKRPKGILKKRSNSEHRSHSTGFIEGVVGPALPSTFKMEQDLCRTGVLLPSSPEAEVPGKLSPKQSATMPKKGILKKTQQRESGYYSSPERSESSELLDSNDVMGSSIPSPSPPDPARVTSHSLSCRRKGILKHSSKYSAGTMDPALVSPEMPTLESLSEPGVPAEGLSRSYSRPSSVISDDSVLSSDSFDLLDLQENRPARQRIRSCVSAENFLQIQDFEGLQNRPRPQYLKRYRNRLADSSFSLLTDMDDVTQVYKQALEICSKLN
# [4] = molecular target: protein kinases (human kinome) (Homo sapiens, UniProt P06493); conditions: CDK1 P06493
# [5] = molecular target: protein kinases (human kinome) (Homo sapiens, UniProt Q9NYL2)
# [6] = molecular target: T2, protein kinases (human kinome) (Homo sapiens, UniProt Q08881)
# T2 sequence (Q08881 1-620): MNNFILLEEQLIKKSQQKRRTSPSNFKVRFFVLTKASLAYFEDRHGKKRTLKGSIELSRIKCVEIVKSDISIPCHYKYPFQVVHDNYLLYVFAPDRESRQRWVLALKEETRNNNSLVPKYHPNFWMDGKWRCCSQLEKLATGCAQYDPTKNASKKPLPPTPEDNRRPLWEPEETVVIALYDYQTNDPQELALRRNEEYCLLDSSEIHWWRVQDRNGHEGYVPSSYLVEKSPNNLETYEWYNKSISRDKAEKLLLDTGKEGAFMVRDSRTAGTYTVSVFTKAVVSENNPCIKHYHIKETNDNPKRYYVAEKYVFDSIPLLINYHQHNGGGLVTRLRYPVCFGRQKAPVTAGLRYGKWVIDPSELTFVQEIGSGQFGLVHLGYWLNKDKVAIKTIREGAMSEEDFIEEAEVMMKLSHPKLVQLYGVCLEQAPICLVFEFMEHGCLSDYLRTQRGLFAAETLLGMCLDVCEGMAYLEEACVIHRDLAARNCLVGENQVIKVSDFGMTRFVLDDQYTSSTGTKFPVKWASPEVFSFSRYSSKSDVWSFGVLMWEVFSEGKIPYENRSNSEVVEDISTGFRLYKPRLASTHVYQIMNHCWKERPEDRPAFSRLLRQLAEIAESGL
# [7] = molecular target: protein kinases (human kinome) (Homo sapiens, UniProt P00519)
# [8] = experiment wp076, direction down
# [9] = experiment wp146, direction down
# [10] = experiment wp016, direction of change down
# [11] = experiment wp131, direction of change down
# Chain of protein kinases (human kinome) (Homo sapiens, UniProt Q7KZI7) (Q7KZI7 whole entry): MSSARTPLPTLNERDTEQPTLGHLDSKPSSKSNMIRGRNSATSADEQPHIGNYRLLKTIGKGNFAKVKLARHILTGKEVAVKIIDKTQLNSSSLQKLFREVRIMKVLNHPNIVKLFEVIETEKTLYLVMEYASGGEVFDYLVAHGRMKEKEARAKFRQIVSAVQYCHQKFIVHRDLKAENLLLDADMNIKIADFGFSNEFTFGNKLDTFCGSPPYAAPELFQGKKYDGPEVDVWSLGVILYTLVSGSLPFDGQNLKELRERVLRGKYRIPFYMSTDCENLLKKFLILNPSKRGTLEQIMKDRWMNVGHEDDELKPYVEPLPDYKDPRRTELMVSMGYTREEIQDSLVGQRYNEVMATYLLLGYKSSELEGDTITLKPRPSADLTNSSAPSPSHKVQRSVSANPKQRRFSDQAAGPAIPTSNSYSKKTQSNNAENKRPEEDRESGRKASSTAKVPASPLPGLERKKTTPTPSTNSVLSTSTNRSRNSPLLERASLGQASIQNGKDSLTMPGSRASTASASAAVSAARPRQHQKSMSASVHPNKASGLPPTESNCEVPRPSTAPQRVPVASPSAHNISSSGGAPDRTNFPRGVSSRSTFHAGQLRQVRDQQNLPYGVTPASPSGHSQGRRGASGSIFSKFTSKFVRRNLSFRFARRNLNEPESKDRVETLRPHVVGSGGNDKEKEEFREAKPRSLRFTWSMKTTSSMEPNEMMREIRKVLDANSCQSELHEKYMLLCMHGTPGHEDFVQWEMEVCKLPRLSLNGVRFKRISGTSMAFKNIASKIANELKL
# Chain of protein kinases (human kinome) (Homo sapiens, UniProt Q9NYL2) (Q9NYL2 whole entry): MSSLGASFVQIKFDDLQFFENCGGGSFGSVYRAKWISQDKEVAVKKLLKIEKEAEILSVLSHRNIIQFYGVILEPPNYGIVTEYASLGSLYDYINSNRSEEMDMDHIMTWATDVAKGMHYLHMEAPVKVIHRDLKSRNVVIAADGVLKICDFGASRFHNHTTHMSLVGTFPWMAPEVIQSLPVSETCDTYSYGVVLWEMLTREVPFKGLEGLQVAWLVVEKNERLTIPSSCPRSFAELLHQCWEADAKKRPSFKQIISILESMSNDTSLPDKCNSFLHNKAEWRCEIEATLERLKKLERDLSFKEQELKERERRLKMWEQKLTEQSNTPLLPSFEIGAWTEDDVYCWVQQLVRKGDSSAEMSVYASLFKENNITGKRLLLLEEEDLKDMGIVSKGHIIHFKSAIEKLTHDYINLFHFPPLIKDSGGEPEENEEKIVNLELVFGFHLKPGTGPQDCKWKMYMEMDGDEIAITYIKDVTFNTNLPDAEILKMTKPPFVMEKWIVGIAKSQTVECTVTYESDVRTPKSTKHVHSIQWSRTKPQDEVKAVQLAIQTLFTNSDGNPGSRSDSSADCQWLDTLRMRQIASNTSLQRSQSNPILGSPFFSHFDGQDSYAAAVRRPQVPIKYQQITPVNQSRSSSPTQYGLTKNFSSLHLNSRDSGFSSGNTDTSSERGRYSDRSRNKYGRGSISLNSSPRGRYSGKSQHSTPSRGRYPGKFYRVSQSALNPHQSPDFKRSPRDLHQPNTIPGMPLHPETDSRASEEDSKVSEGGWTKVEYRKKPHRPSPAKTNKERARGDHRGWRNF
# Chain of protein kinases (human kinome) (Homo sapiens, UniProt Q13164) (Q13164 whole entry): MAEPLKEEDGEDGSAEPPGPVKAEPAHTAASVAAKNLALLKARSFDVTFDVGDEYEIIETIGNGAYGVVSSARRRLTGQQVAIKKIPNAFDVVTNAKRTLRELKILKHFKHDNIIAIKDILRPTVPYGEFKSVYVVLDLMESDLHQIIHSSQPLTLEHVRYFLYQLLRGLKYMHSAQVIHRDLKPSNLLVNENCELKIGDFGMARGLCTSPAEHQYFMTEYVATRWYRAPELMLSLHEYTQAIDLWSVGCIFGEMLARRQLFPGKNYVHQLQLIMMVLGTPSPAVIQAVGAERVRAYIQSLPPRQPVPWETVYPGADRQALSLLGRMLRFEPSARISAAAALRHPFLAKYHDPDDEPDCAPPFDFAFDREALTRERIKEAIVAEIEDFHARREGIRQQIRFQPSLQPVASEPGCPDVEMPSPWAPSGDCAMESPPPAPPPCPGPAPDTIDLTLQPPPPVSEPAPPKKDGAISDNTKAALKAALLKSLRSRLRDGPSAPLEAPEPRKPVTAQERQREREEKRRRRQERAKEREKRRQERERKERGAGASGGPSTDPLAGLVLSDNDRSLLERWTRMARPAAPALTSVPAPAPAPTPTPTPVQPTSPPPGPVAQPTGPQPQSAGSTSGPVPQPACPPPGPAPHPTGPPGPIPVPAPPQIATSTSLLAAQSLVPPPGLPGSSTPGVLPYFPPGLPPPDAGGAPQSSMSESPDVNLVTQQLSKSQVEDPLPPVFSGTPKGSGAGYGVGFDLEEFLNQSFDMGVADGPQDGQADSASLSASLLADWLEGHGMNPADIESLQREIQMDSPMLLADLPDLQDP
# Chain of protein kinases (human kinome) (Homo sapiens, UniProt P06493) (P06493 whole entry): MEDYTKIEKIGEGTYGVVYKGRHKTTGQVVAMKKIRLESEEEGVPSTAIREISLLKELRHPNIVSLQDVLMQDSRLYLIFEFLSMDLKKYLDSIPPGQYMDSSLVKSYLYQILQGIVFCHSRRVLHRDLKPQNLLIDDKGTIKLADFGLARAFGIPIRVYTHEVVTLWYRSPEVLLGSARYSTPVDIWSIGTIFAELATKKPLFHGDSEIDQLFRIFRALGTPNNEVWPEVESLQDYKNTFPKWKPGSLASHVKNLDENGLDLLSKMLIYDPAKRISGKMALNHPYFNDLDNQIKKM
# Chain of protein kinases (human kinome) (Homo sapiens, UniProt P00519) (P00519 whole entry): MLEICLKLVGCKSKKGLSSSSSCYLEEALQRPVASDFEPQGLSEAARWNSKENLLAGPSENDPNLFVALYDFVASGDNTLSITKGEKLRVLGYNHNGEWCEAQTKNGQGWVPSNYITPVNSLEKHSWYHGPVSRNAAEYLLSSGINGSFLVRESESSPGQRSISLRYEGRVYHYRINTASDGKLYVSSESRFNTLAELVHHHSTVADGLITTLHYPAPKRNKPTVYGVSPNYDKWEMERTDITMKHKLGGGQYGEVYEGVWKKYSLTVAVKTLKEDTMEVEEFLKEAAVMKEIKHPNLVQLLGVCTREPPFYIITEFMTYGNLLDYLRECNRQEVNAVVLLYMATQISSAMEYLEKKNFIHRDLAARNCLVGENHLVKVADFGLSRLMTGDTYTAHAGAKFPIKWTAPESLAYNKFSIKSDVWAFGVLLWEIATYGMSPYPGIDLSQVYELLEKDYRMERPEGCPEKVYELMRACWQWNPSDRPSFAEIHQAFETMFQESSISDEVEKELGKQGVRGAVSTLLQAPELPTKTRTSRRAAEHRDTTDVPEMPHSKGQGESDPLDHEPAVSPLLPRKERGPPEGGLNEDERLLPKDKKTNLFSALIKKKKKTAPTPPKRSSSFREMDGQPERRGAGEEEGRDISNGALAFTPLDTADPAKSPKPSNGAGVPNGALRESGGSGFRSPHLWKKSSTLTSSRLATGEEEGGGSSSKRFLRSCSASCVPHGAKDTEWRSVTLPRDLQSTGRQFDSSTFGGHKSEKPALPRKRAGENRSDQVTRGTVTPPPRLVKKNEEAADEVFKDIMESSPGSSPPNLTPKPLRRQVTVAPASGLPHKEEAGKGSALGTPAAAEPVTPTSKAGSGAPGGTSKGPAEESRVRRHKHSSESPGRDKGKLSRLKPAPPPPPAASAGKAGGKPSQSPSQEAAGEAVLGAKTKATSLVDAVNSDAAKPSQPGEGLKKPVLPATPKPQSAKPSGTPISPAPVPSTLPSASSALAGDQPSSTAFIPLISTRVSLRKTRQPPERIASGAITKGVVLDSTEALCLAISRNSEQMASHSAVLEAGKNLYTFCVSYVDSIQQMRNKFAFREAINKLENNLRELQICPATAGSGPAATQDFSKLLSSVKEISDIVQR
structure (smiles),measurement,setting,value
O=C(COc1cccc2c1C(=O)N(C1CCC(=O)NC1=O)C2=O)NCCCCCCCN1CCc2cc(Nc3ncc(C4CC4)c(NCCCNC(=O)C4CCC4)n3)ccc2C1 (stereo not shown) [BSJ.04.178],logFC,"[1]; MARK2 (Q7KZI7-1), experiment wp134, direction down",−0.9686
same,logFC,"[1]; MARK2 Q7KZI7-1, experiment wp134",−0.9686
CNC(=O)c1ccccc1Nc1cc(Nc2ccc(N3CCN(CCOCCOCCNC(=O)CNc4cccc5c4C(=O)N(C4CCC(=O)NC4=O)C5=O)CC3)cc2OC)ncc1C(F)(F)F (stereo not shown) [MFH.5.103.1],logFC,[2]; experiment wp076,−0.4142
same,logFC,[2]; [8],−0.4142
Cc1cc(Nc2ncc(Br)c(Nc3cccc(F)c3C(N)=O)n2)ccc1S(=O)(=O)NCCOCCOCCOCCOCCNc1cccc2c1C(=O)N(C1CCC(=O)NC1=O)C2=O (stereo not shown) [TMX.02.174],logFC,[3]; experiment wp146,−1.361
same,logFC,[3]; [9],−1.361
same,logFC,[4]; experiment wp146,−1.629
same,logFC CDK1,[4]; experiment wp146,−1.629
"Cc1ccc(NC(=O)c2cccc(C(F)(F)F)c2)cc1N1Cc2cnc(Nc3ccc(N4CCN(Cc5cn(CCCCCOc6cccc7c6C(=O)N(C6CCC(=O)NC6=O)C7=O)nn5)CC4)nc3)nc2N(C)C1=O (stereo not shown) [DB0646, N-(3-(7-((6-(4-((1-(5-((2-(2,6-Dioxopiperidin-3-yl)-1,3-dioxoisoindolin-4-yl)oxy)pentyl)-1H-1,2,3-triazol-4-yl)methyl)piperazin-1-v)pyridin-3-yl)amino)-1-methyl-2-oxo-1,4-dihydropyrimido[4,5-d]pyrimidin-3(2H)-yl)-4-methylphenyl)-3-(trifluoromethyl)benzamide]",logFC MAP3K20 (Q9NYL2),[5]; Experiment wp045,−0.4248
same,logFC MAP3K20 (Q9NYL2),[5]; Experiment wp107,−0.53
same,logFC MAP3K20 (Q9NYL2),"[5]; Experiment wp160, 2 hr",−0.3293
same,logFC MAP3K20,[5]; MAP3K20 Q9NYL2; experiment wp045,−0.4248
same,logFC MAP3K20,[5]; MAP3K20 Q9NYL2; experiment wp107,−0.53
same,logFC MAP3K20,[5]; MAP3K20 Q9NYL2; experiment wp152,−0.6556
same,logFC MAP3K20,"[5]; MAP3K20 Q9NYL2; experiment wp160, 2 hr",−0.3293
same,logFC MAP3K20,"[5]; MAP3K20 Q9NYL2; experiment wp160, 4 hr",−0.6192
same,logFC MAP3K20,"[5]; MAP3K20 Q9NYL2; experiment wp160, 8 hr",−0.9197
same,logFC MAP3K20,[5]; MAP3K20 Q9NYL2; experiment wp160; 4 hr,−0.6192
same,logFC MAP3K20,[5]; MAP3K20 Q9NYL2; experiment wp160; 8 hr,−0.9197
same,logFC MAP3K20,[5]; MAP3K20 Q9NYL2; experiment wp172,−0.3864
same,logFC MAP3K20 (Q9NYL2),[5]; experiment wp152,−0.6556
CC(C)(C)c1nc(-c2cccc(NS(=O)(=O)c3c(F)cccc3F)c2F)c(-c2ccnc(NCCOCCNC(=O)CCOCCOCCNc3cccc4c3C(=O)N(C3CCC(=O)NC3=O)C4=O)n2)s1 (stereo not shown) [DD.03.106],logFC MAP3K20 (Q9NYL2),"[5]; Experiment wp147, 2 uM",−0.4079
same,logFC MAP3K20,"[5]; MAP3K20 Q9NYL2; experiment wp147, 2 uM",−0.4079
same,logFC,"[4]; experiment wp147, 2 uM",−0.5015
same,logFC CDK1,"[4]; experiment wp147, 2 uM",−0.5015
same,logFC,"[4]; experiment wp147, 4 uM",−0.5416
same,logFC CDK1,"[4]; experiment wp147, 4 uM",−0.5416
CCc1cnn2c(N(Cc3ccc(N)nc3)C(=O)CCOCCOCCOCCNC(=O)CNc3cccc4c3C(=O)N(C3CCC(=O)NC3=O)C4=O)cc(N3CCCC[C@H]3CCO)nc12 (stereo partly shown) [MFH.5.115.2],logFC,[3]; experiment wp076,−0.5264
same,logFC,[3]; [8],−0.5264
CC(C)S(=O)(=O)c1ccccc1Nc1nc(Nc2ccc(N3CCN(CCOCCOCCNC(=O)CNc4cccc5c4C(=O)N(C4CCC(=O)NC4=O)C5=O)CC3)cc2)ncc1Cl (stereo not shown) [TL12.186],logFC ITK (Q08881),[6]; experiment wp016,−2.342
same,logFC ITK (Q08881),[6]; [10],−2.342
same,logFC ITK (Q08881),[6]; experiment wp131,−2.292
same,logFC ITK (Q08881),[6]; [11],−2.292
same,logFC ITK (Q08881),[6]; experiment wp137,−1.973
same,logFC ITK (Q08881),"[6]; experiment wp137, direction of change down",−1.973
same,logFC,[2]; experiment wp137,−0.3334
same,logFC,"[2]; experiment wp137, direction down",−0.3334
CC(C)S(=O)(=O)c1ccccc1Nc1nc(Nc2ccc(N3CCN(CCOCCOCCC(=O)NCCNc4cccc5c4CN(C4CCC(=O)NC4=O)C5=O)CC3)cc2)ncc1Cl (stereo not shown) [TL13.97],logFC,"[6]; ITK (Q08881) protein abundance, degrader vs DMSO, direction of change down",−2.28
same,logFC ITK (Q08881),[6]; experiment wp137,−2.28
CC(C)S(=O)(=O)c1ccccc1Nc1nc(Nc2ccc(N3CCN(CCOCCNC(=O)CNc4ccc5c(c4)C(=O)N(C4CCC(=O)NC4=O)C5=O)CC3)cc2)ncc1Cl (stereo not shown) [SK.3.93],logFC ITK (Q08881),[6]; experiment wp016,−2.136
same,logFC ITK (Q08881),[6]; [10],−2.136
NC(=O)c1c(F)cccc1Nc1nc(Nc2ccc(S(=O)(=O)NCCOCCOCCOCCOCCNc3cccc4c3C(=O)N(C3CCC(=O)NC3=O)C4=O)cc2)ncc1Br (stereo not shown) [TMX.02.138],logFC,[3]; experiment wp146,−0.8254
same,logFC,[3]; [9],−0.8254
same,logFC,[4]; experiment wp146,−1.641
same,logFC CDK1,[4]; experiment wp146,−1.641
Cc1ccc(NC(=O)c2cccc(C(F)(F)F)c2)cc1N1Cc2cnc(Nc3ccc(N4CCN(CCCOc5cccc6c5C(=O)N(C5CCC(=O)NC5=O)C6=O)CC4)nc3)nc2N(C)C1=O (stereo not shown) [DB0662],logFC MAP3K20,[5]; MAP3K20 Q9NYL2; experiment wp168,−0.737
same,logFC of ABL1 (P00519),[7]; Experiment wp168,−0.7617
same,logFC ABL1 (P00519),[7]; experiment wp168,−0.7617
Cc1ncsc1-c1ccc([C@H](C)NC(=O)[C@@H]2C[C@@H](O)CN2C(=O)[C@@H](NC(=O)CCOCCOCCN2CCN(c3ccc(Nc4ncc(Cl)c(Nc5ccccc5S(=O)(=O)C(C)C)n4)cc3)CC2)C(C)(C)C)cc1 [FMF.06.098.1],logFC ITK (Q08881),[6]; Experiment wp108,−0.3557
same,logFC ITK (Q08881),"[6]; experiment wp108, direction of change down",−0.3557
same,logFC ITK (Q08881),[6]; experiment wp131,−0.3625
same,logFC ITK (Q08881),[6]; [11],−0.3625
same,logFC,[2]; experiment wp108,−0.4347
same,logFC,"[2]; experiment wp108, direction down",−0.4347
same,logFC,[2]; experiment wp131,−0.4637
same,logFC,"[2]; experiment wp131, direction down",−0.4637
same,logFC,[4]; experiment wp131,−0.3535
same,logFC CDK1,[4]; experiment wp131,−0.3535
"Cc1ncsc1-c1ccc([C@H](C)NC(=O)[C@@H]2C[C@@H](O)CN2C(=O)[C@@H](NC(=O)CCCCCN2CCN(c3ccc(Nc4ncc5scc(-c6cccc(NS(C)(=O)=O)c6)c5n4)cc3)CC2)C(C)(C)C)cc1 [RSS0680, (2S,4R)-1-((S)-3,3-Dimethyl-2-(6-(4-(4-((7-(3-(methylsulfonamido)phenyl)thieno[3,2-d]pyrimidin-2-yl)amino)phenyl)piperazin-1-yl)hexanamido)butanoyl)-4-hydroxy-N—((S)-1-(4-(4-methylthiazol-5yl)phenyl)ethyl)pyrrolidine-2-carboxamide]",logFC,"[1]; MARK2 (Q7KZI7-1), experiment wp117, direction down",−0.4286
same,logFC,"[1]; MARK2 Q7KZI7-1, experiment wp117",−0.4286
same,logFC,[4]; experiment wp117,−0.3587
same,logFC CDK1,[4]; experiment wp117,−0.3587
O=C1CCC(N2C(=O)c3cccc(NCCCCCCCCN4CCC(NC(=O)c5[nH]ncc5NC(=O)c5c(Cl)cccc5Cl)CC4)c3C2=O)C(=O)N1 (stereo not shown) [MFH.5.126.1],logFC,[3]; experiment wp076,−1.649
same,logFC,[3]; [8],−1.649
